Key:
RPMI 8402 [1] = assay: Cytotoxicity against human lymphoblast tumor cell line RPM18402; assay type: functional, cell-based
RPMI 8402 [2] = assay: Cytotoxicity using camptothecin-resistant variant of RPM18402 (CPT-K5) possessing functional, but mutant TOP-1; assay type: cell-based; conditions: Homo sapiens
[3] = biological target: T1, DNA topoisomerase 1 (Homo sapiens) (UniProt P11387); assay: TOP-1 mediated DNA cleavage measured as effective concentration relative to topotecan = 1; assay type: functional
T1 sequence (whole entry): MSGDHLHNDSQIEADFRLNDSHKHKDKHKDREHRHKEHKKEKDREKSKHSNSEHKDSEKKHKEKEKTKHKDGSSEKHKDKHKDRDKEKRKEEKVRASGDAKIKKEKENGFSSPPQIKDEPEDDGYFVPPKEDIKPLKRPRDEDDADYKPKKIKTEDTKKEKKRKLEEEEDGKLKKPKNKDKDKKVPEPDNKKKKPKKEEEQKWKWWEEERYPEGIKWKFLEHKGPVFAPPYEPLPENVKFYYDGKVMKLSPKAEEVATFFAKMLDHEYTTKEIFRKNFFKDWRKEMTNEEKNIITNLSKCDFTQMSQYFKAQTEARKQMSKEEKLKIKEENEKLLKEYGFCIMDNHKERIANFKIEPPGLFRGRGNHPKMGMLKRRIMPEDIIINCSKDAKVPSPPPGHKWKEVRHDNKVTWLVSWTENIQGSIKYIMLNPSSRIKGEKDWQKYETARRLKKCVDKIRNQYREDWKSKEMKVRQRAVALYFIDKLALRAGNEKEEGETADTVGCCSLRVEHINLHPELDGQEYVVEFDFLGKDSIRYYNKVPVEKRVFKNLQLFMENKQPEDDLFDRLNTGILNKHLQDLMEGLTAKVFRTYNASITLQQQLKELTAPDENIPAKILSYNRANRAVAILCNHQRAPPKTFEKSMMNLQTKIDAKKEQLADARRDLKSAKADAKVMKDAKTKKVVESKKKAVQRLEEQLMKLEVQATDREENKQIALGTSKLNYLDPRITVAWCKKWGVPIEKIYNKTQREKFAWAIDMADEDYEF

[4] = biological target: DNA topoisomerase II (Homo sapiens) (UniProt P11388+Q02880); assay: TOP-2 mediated DNA cleavage measured as effective concentration relative to VM26; assay type: functional
Mus musculus [5] = assay: In vivo antitumor activity in NCR-nude-nude mice inoculated with 1.2 E6 -1.5 E6 MDA-MB-435 cells; after day 13 with an average dose of 0.22 mg/mouse (ip); assay type: functional
Mus musculus [6] = assay: In vivo antitumor activity in NCR-nude-nude mice inoculated with 1.2 E6 -1.5 E6 MDA-MB-435 cells; after day 21 with an average dose of 0.22 mg/mouse (ip); assay type: functional
Mus musculus [7] = assay: In vivo antitumor activity in NCR-nude-nude mice inoculated with 1.2 E6 -1.5 E6 MDA-MB-435 cells; after day 7 with an average dose of 0.27 mg/mouse (po); assay type: functional
Mus musculus [8] = assay: In vivo antitumor activity in NCR-nude-nude mice inoculated with 1.2 E6 -1.5 E6 MDA-MB-435 cells; after day 21 with an average dose of 0.27 mg/mouse (po); assay type: functional
Mus musculus [9] = assay: In vivo antitumor activity in NCR-nude-nude mice inoculated with 1.2 E6 -1.5 E6 MDA-MB-435 cells; after day 7 with an average dose of 0.22 mg/mouse (ip); assay type: functional
Mus musculus [10] = assay: In vivo antitumor activity in NCR-nude-nude mice inoculated with 1.2 E6 -1.5 E6 MDA-MB-435 cells; after day 31 with an average dose of 0.27 mg/mouse (po); assay type: functional
Mus musculus [11] = assay: In vivo antitumor activity in NCR-nude-nude mice inoculated with 1.2 E6 -1.5 E6 MDA-MB-435 cells; after day 13 with an average dose of 0.27 mg/mouse (po); assay type: functional
Mus musculus [12] = assay: In vivo antitumor activity in NCR-nude-nude mice inoculated with 1.2 E6 -1.5 E6 MDA-MB-435 cells; after day 31 with an average dose of 0.22 mg/mouse (ip); assay type: functional
Mus musculus [13] = assay: In vivo antitumor activity in NCR-nude-nude mice inoculated with 1.2 E6 -1.5 E6 MDA-MB-435 cells; after day 13 with an average dose of 13.88 mg/mouse (ip); assay type: functional
Mus musculus [14] = assay: In vivo antitumor activity in NCR-nude-nude mice inoculated with 1.2 E6 -1.5 E6 MDA-MB-435 cells; after day 31 with an average dose of 13.88 mg/mouse (ip); assay type: functional
Mus musculus [15] = assay: In vivo antitumor activity in NCR-nude-nude mice inoculated with 1.2 E6 -1.5 E6 MDA-MB-435 cells; after day 7 with an average dose of 13.88 mg/mouse (ip); assay type: functional
Mus musculus [16] = assay: In vivo antitumor activity in NCR-nude-nude mice inoculated with 1.2 E6 -1.5 E6 MDA-MB-435 cells; after day 21 with an average dose of 13.88 mg/mouse (ip); assay type: functional
Mus musculus [17] = assay: In vivo antitumor activity in NCR-nude-nude mice inoculated with 1.2 E6 -1.5 E6 MDA-MB-435 cells after day 7 with an average dose of 0.78 mg/mouse (po); assay type: functional
Mus musculus [18] = assay: In vivo antitumor activity in NCR-nude-nude mice inoculated with 1.2 E6 -1.5 E6 MDA-MB-435 cells after day 13 with an average dose of 0.73 mg/mouse (ip); assay type: functional
Mus musculus [19] = assay: In vivo antitumor activity in NCR-nude-nude mice inoculated with 1.2 E6 -1.5 E6 MDA-MB-435 cells after day 21 with an average dose of 0.78 mg/mouse(po); assay type: functional
Mus musculus [20] = assay: In vivo antitumor activity in NCR-nude-nude mice inoculated with 1.2 E6 -1.5 E6 MDA-MB-435 cells after day 13 with an average dose of 0.78 mg/mouse (po); assay type: functional
Mus musculus [21] = assay: In vivo antitumor activity in NCR-nude-nude mice inoculated with 1.2 E6 -1.5 E6 MDA-MB-435 cells after day 7 with an average dose of 0.73 mg/mouse (ip); assay type: functional
Mus musculus [22] = assay: In vivo antitumor activity in NCR-nude-nude mice inoculated with 1.2 E6 -1.5 E6 MDA-MB-435 cells after day 31 with an average dose of 0.78 mg/mouse (po); assay type: functional
Mus musculus [23] = assay: In vivo antitumor activity in NCR-nude-nude mice inoculated with 1.2 E6 -1.5 E6 MDA-MB-435 cells after day 31 with an average dose of 0.73 mg/mouse (ip); assay type: functional
Mus musculus [24] = assay: In vivo antitumor activity in NCR-nude-nude mice inoculated with 1.2 E6 -1.5 E6 MDA-MB-435 cells after day 21 with an average dose of 0.73 mg/mouse (ip); assay type: functional

COc1cc2c(=O)n(CC3CCCO3)c3c4cc5c(cc4ncc3c2cc1OC)OCO5 (configuration not stated)
IC50 (RPMI 8402 [1]): 0.15 µM
IC50 (RPMI 8402 [2]): > 10 µM
REC [3]: 200
REC [4]: > 100

COc1cc2c(=O)n(CCN(C)C)c3c4cc5c(cc4nnc3c2cc1OC)OCO5
IC50 (RPMI 8402 [1]): 0.001 µM
Average tumor volume (Mus musculus [5]): 211 mm**3
IC50 (RPMI 8402 [2]): 0.6 µM
Average tumor volume (Mus musculus [6]): 252 mm**3
Average tumor volume (Mus musculus [7]): 154 mm**3
REC [3]: 0.3
REC [4]: > 100
Average tumor volume (Mus musculus [8]): 207 mm**3
Average tumor volume (Mus musculus [9]): 167 mm**3
Average tumor volume (Mus musculus [10]): 200 mm**3
Average tumor volume (Mus musculus [11]): 183 mm**3
Average tumor volume (Mus musculus [12]): 403 mm**3

CCCCn1c(=O)c2cc(OC)c(OC)cc2c2nnc3cc4c(cc3c21)OCO4
IC50 (RPMI 8402 [1]): 0.004 µM
IC50 (RPMI 8402 [2]): 10 µM
REC [3]: 1
REC [4]: > 100

CCc1c2c(nc3ccc(OC(=O)N4CCC(N5CCCCC5)CC4)cc13)-c1cc3c(c(=O)n1C2)CCC(=O)C3(O)CC (configuration not stated)
Average tumor volume (Mus musculus [13]): 116 mm**3
IC50 (RPMI 8402 [2]): > 10 µM
Average tumor volume (Mus musculus [14]): 11 mm**3
Average tumor volume (Mus musculus [15]): 118 mm**3
REC [4]: > 100
Average tumor volume (Mus musculus [16]): 36 mm**3

COc1cc2c(=O)n(C(C)CN(C)C)c3c4cc5c(cc4ncc3c2cc1OC)OCO5 (configuration not stated)
IC50 (RPMI 8402 [1]): 0.57 µM
IC50 (RPMI 8402 [2]): 3.4 µM
REC [3]: > 1000
REC [4]: > 100

COc1cc2c(=O)n(CC3CCCO3)c3c4cc5c(cc4nnc3c2cc1OC)OCO5 (configuration not stated)
IC50 (RPMI 8402 [1]): 0.01 µM
IC50 (RPMI 8402 [2]): > 10 µM
REC [3]: 30
REC [4]: > 100

CC[C@@]1(O)C(=O)OCc2c1cc1n(c2=O)Cc2cc3c(CN(C)C)c(O)ccc3nc2-1 [TOPOTECAN]
IC50 (RPMI 8402 [1]): 0.012 µM
IC50 (RPMI 8402 [2]): > 10 µM
REC [3]: 1
REC [4]: > 100

COc1cc2c(=O)n(C(C)CN(C)C)c3c4cc5c(cc4nnc3c2cc1OC)OCO5 (configuration not stated)
IC50 (RPMI 8402 [1]): 0.26 µM
IC50 (RPMI 8402 [2]): 3.6 µM
REC [3]: 1000
REC [4]: > 100

COc1cc([C@@H]2c3cc4c(cc3[C@@H](O[C@@H]3O[C@@H]5CO[C@@H](c6cccs6)O[C@H]5[C@H](O)[C@H]3O)[C@H]3COC(=O)[C@H]23)OCO4)cc(OC)c1O [TENIPOSIDE]
IC50 (RPMI 8402 [1]): 0.22 µM
IC50 (RPMI 8402 [2]): 0.28 µM
REC [3]: > 1000
REC [4]: > 100

COc1cc2c(=O)n(CCN(C)C)c3c4cc5c(cc4ncc3c2cc1OC)OCO5
Average tumor volume (Mus musculus [17]): 159 mm**3
IC50 (RPMI 8402 [1]): 0.002 µM
IC50 (RPMI 8402 [2]): 0.9 µM
Average tumor volume (Mus musculus [18]): 84 mm**3
Average tumor volume (Mus musculus [19]): 99 mm**3
Average tumor volume (Mus musculus [20]): 148 mm**3
REC [4]: > 100
Average tumor volume (Mus musculus [21]): 123 mm**3
Average tumor volume (Mus musculus [22]): 62 mm**3
Average tumor volume (Mus musculus [23]): 40 mm**3
Average tumor volume (Mus musculus [24]): 65 mm**3

Source: ChEMBL document CHEMBL1134974, “Diaza- and triazachrysenes: potent topoisomerase-targeting agents with exceptional antitumor activity against the human tumor xenograft, MDA-MB-435” (Bioorg Med Chem Lett, 2002)
